Reference: patent US20250340538A1, “IMIDAZOLONE DERIVATIVES AS INHIBITORS OF PROTEIN KINASES IN PARTICULAR DYRK1A, CLK1 AND/OR CLK4” (PERHA PHARMACEUTICALS, priority 2021, published 2025)
Like-named read-outs stand apart in the source and are kept apart here.

Assays:
Assay type in all cases: biochemical
DYRK1A = biological target: T1, DYRK1A (Homo sapiens, UniProt Q13627); assay: Radiometric protein kinase assay (33PanQinase Activity Assay), DYRK1A; settings: for Selectivity Class DYRK1A vs. CLK1: ratio of IC50 on CLK1 over IC50 on DYRK1A; for Selectivity Class DYRK1A vs. DYRK1B: ratio of IC50 on DYRK1B over IC50 on DYRK1A
T1 construct: GST-fusion or His-tag (not specified per kinase); purchased ProQinase GmbH; host or cells: Sf9 insect cells or E. coli (not specified per kinase)
In short: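 Recombinant human kinase, expressed in Sf9 or E. coli, in a radiometric [γ-33P]-ATP assay at 30 °C for 60 min. Compounds tested at 10 concentrations from 10 μM to 30 nM, 1% DMSO final. 33Pi incorporation measured by scintillation counting; IC50 from dose-response curves.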

DYRK1B = biological target: T2, DYRK1B (Homo sapiens, UniProt Q9Y463); assay: Radiometric protein kinase assay (33PanQinase Activity Assay), DYRK1B; settings: read-out: IC50 on DYRK1B (most potent DYRK1B inhibitors)
T2 construct: GST-fusion or His-tag (not specified per kinase); purchased ProQinase GmbH; host or cells: Sf9 insect cells or E. coli (not specified per kinase)
Protocol: (§1) Assays were performed by ProQinase GmbH (Engesserstr. 4, D-79108 Freiburg, Germany. www.proqinase.com). The IC50 profile of all compounds was determined using 12 protein kinases (CDK2/cyclin E, CK1ε, CLK1, 2, 3, 4, DYRK1A, 1B, 2, 3, 4, GSK3β).
(§2) The compounds were provided as […] in 100% DMSO. Prior to testing, the 1 μM stock solutions were subjected to a serial, semi-logarithmic dilution using 100% DMSO as a solvent. […] In the process, 90 μl H2O were added to each well of each compound dilution plate. To minimize potential precipitation, the H2O was added to each plate only a few minutes before the transfer of the compound solutions into the assay plates. The plate was shaken thoroughly, resulting in a compound dilution plate/10% DMSO.
(§3) For the assays (see below), 5 μL solution from each well of the compound dilution plates/10% DMSO were transferred into the assay plates. The final volume of the assay was 50 μL. All compounds were tested at 10 final assay concentrations in the range from 10 μM to 30 nM. The final DMSO concentration in the reaction cocktails was 1% in all cases.
(§4) All protein kinases provided by ProQinase were expressed in Sf9 insect cells or in E. coli as recombinant GST-fusion proteins or His-tagged proteins, either as full-length or enzymatically active fragments. All kinases were produced from human cDNAs and purified by either GSH-affinity chromatography or immobilized metal. Affinity tags were removed from a number of kinases during purification. The purity of the protein kinases was examined by SDS-PAGE/Coomassie staining, the identity was checked by mass spectroscopy.
(§5) A radiometric protein kinase assay (33PanQinase® Activity Assay) was used for measuring the kinase activity of the 12 protein kinases. All kinase assays were performed in 96-well FlashPlates™ from PerkinElmer (Boston, MA, USA) in a 50 μL reaction volume. The reaction cocktail was pipetted in four steps in the following order: • 25 μL of assay buffer (standard buffer/[γ-^33P]-ATP), • 10 μL of ATP solution (in H2O), • 5 μL of test compound (in 10% DMSO), • 10 μL of enzyme/substrate mixture.
(§6) The reaction cocktails were incubated at 30° C. for 60 minutes. The reaction was stopped with 50 μL of 2% (v/v) H3PO4, plates were aspirated and washed two times with 200 μL 0.9% (w/v) NaCl. Incorporation of ^33Pi was determined with a microplate scintillation counter (Microbeta, Wallac). The IC50 values for all compounds were calculated from the dose response curves
(§7) As a parameter for assay quality, the Z′-factor (Zhang et al., J. Biomol. Screen. 2: 67-73, 1999) for the low and high controls of each assay plate (n=8) was used. ProQinase's criterion for repetition of an assay plate is a Z′-factor below 0.4 (Iversen et al., J. Biomol. Screen. 3: 247-252, 2006).

CLK4 = biological target: T3, CLK4 (Homo sapiens, UniProt Q9HAZ1); assay: Radiometric protein kinase assay (33PanQinase Activity Assay), CLK4; settings: read-out: IC50 on CLK4 (most potent CLK4 inhibitors)
T3 construct: GST-fusion or His-tag (not specified per kinase); purchased ProQinase GmbH; host or cells: Sf9 insect cells or E. coli (not specified per kinase)
Protocol: as §1, §2, §3, §4, §5, §6, §7

CLK1 = biological target: T4, CLK1 (Homo sapiens, UniProt P49759); assay: Radiometric protein kinase assay (33PanQinase Activity Assay), CLK1
T4 construct: GST-fusion or His-tag (not specified per kinase); purchased ProQinase GmbH; host or cells: Sf9 insect cells or E. coli (not specified per kinase)
In short: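 Human kinase (Sf9- or E. coli-expressed, tagged, purified) + substrate + [γ-33P]-ATP; cpd 10 μM→30 nM, 10 pts, 1% DMSO; 30 °C, 60 min; H3PO4 stop; scintillation count; IC50 from curve.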

CLK2 = biological target: T5, CLK2 (Homo sapiens, UniProt P49760); assay: Radiometric protein kinase assay (33PanQinase Activity Assay), CLK2; settings: read-out: IC50 on CLK2 (most potent CLK2 inhibitors)
T5 construct: GST-fusion or His-tag (not specified per kinase); purchased ProQinase GmbH; host or cells: Sf9 insect cells or E. coli (not specified per kinase)
Protocol: as §1, §2, §3, §4, §5, §6, §7

DYRK2 = biological target: T6, DYRK2 (Homo sapiens, UniProt Q92630); assay: Radiometric protein kinase assay (33PanQinase Activity Assay), DYRK2; settings: read-out: IC50 on DYRK2 (most potent DYRK2 inhibitors)
T6 construct: GST-fusion or His-tag (not specified per kinase); purchased ProQinase GmbH; host or cells: Sf9 insect cells or E. coli (not specified per kinase)
T6 sequence (Q92630 1-601): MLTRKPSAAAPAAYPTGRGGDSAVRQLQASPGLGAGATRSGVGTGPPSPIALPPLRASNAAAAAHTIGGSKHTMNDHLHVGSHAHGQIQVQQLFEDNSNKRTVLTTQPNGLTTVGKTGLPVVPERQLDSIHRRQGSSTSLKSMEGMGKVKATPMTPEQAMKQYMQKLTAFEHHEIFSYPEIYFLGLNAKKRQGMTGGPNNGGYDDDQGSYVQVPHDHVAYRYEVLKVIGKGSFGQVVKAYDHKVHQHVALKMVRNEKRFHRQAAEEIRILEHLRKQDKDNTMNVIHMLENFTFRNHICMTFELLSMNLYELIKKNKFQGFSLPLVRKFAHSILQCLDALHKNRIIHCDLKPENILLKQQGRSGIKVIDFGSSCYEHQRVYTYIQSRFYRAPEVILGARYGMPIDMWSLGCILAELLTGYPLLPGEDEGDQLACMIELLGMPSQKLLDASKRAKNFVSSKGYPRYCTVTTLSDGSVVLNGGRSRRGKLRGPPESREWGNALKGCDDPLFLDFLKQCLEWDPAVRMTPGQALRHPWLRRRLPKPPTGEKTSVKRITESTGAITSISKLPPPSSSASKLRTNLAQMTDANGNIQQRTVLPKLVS
Protocol: as §1, §2, §3, §4, §5, §6, §7

DYRK3 = biological target: T7, DYRK3 (Homo sapiens, UniProt O43781); assay: Radiometric protein kinase assay (33PanQinase Activity Assay), DYRK3; settings: read-out: IC50 on DYRK3 (most potent DYRK3 inhibitors)
T7 construct: GST-fusion or His-tag (not specified per kinase); purchased ProQinase GmbH; host or cells: Sf9 insect cells or E. coli (not specified per kinase)
T7 sequence (O43781 1-588): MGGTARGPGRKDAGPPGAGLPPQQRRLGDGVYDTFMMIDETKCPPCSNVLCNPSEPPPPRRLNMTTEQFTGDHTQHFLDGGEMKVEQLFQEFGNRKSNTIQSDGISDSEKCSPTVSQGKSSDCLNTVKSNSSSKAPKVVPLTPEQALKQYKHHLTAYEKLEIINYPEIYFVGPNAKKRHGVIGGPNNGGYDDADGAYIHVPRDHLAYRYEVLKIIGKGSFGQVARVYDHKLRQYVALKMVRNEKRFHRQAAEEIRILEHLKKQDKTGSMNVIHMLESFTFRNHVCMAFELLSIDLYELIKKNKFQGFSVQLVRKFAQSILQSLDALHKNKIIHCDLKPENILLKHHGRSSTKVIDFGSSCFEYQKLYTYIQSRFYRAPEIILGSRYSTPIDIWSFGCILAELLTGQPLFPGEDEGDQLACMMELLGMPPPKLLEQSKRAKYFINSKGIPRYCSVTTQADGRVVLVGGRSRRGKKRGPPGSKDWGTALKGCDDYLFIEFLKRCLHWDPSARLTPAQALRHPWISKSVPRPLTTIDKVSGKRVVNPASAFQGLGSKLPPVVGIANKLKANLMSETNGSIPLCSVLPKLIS
Protocol: as §1, §2, §3, §4, §5, §6, §7

[1] = IC50 class A to E, read-out: Potency Class DYRK1A
[2] = class by IC50 on DYRK1A, from dose-response curves, read-out: Potency Class DYRK1A
[3] = read-out: IC50 on DYRK1A (most potent DYRK1A inhibitors)
[4] = IC50 class A to E, read-out: Potency Class CLK1
[5] = class by IC50 on CLK1, from dose-response curves, read-out: Potency Class CLK1

T2 sequence (Q9Y463 whole entry, the tested form may be a part): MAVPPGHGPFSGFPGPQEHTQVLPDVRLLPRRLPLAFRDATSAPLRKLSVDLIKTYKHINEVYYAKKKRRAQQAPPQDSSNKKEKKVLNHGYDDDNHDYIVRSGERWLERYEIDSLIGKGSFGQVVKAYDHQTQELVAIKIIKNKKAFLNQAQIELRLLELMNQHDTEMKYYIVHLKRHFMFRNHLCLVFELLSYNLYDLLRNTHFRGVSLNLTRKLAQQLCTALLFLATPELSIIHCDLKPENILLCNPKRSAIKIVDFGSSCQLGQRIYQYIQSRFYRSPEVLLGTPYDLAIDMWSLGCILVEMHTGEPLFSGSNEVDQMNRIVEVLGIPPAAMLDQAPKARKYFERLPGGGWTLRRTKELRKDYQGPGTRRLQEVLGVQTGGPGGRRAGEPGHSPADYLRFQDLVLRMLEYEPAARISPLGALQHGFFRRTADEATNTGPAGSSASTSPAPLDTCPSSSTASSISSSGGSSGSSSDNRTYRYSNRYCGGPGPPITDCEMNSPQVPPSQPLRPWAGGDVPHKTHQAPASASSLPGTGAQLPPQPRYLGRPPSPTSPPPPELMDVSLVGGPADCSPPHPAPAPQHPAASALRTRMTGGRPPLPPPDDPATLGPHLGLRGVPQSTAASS
T4 sequence (P49759 whole entry, the tested form may be a part): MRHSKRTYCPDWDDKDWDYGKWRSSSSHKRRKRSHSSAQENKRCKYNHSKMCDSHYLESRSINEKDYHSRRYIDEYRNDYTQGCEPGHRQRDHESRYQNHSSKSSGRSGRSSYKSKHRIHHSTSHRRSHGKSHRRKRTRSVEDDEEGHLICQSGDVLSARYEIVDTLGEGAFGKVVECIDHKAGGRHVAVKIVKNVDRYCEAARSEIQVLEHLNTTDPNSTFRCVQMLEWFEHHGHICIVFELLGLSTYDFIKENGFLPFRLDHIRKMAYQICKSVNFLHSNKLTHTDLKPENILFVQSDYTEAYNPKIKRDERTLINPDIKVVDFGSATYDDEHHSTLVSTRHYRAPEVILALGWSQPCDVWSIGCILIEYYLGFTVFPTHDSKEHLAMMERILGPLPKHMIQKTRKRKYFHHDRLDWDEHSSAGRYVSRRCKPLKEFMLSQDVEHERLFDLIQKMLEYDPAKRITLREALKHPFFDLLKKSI
T3 sequence (Q9HAZ1 whole entry, the tested form may be a part): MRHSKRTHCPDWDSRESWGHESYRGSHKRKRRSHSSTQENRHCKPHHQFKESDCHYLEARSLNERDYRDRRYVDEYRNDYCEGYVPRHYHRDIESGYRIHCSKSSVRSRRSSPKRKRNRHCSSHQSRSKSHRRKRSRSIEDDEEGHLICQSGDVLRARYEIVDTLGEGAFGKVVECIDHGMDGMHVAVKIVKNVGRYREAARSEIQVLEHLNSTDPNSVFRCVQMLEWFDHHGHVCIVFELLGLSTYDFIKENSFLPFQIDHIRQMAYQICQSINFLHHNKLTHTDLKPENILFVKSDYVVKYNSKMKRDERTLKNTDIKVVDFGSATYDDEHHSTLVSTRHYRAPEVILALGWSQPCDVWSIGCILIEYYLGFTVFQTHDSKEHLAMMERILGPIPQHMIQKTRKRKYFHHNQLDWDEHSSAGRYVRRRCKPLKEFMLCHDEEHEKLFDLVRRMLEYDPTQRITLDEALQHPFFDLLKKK
T5 sequence (P49760 whole entry, the tested form may be a part): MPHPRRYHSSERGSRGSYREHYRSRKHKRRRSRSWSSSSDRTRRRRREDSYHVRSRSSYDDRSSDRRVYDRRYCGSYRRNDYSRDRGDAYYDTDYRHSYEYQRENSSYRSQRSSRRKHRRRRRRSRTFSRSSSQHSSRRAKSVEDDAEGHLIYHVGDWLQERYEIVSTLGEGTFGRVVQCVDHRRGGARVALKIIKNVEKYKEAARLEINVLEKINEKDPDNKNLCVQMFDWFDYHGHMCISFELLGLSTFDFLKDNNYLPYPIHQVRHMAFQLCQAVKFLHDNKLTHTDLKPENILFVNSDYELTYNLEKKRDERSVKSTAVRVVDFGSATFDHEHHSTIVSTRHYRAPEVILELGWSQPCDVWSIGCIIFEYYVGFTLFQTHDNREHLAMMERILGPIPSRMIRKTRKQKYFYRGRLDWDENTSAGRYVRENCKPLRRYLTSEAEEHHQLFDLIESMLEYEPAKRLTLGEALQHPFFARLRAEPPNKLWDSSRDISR

Row | Structure (SMILES) | IC50 (DYRK1A; [1]) | IC50 (DYRK1A; [2]) | Selectivity Class DYRK1A vs. CLK1 (DYRK1A) | Selectivity Class DYRK1A vs. DYRK1B (DYRK1A) | IC50 (DYRK1A; [3]) | IC50 (DYRK1B) | IC50 (CLK4) | IC50 (CLK1; [4]) | IC50 (CLK1; [5]) | IC50 (CLK2) | IC50 (DYRK2) | IC50 (DYRK3) | IC50 (CLK1; read-out: IC50 on CLK1 (most potent CLK1 inhibitors))
1 | O=C1NC(NC23CC4CC(CC(O)(C4)C2)C3)=N/C1=C\c1ccc2nccnc2c1 [Compound 18, (4Z)-2-[(3-hydroxy-1-adamantyl)amino]-4-(quinoxalin-6-ylmethylene)-1H-imidazol-5-one] | ≤ 5 nM | < 5 nM | II (ratio between 2 and 10 fold) | II (ratio between 2 and 10 fold) | ≤ 10 nM | ≤ 10 nM | ≤ 10 nM | 10 to 25 nM | 10 to 25 nM |  |  |  | 
2 | COC12CC3CC(CC(NC4=N/C(=C\c5ccc6nccnc6c5)C(=O)N4)(C3)C1)C2 [Compound 19, (4Z)-2-[(3-methoxy-1-adamantyl)amino]-4-(quinoxalin-6-ylmethylene)-1H-imidazol-5-one] | ≤ 5 nM | < 5 nM | II (ratio between 2 and 10 fold) | II (ratio between 2 and 10 fold) | ≤ 10 nM | ≤ 10 nM | ≤ 10 nM | 10 to 25 nM | 10 to 25 nM | ≤ 100 nM | ≤ 250 nM |  | 
3 | O=C1NC(NC23CC4CC(CC(F)(C4)C2)C3)=N/C1=C\c1ccc2nccnc2c1 [Compound 20, (4Z)-2-[(3-fluoro-1-adamantyl)amino]-4-(quinoxalin-6-ylmethylene)-1H-imidazol-5-one] | ≤ 5 nM | < 5 nM | II (ratio between 2 and 10 fold) | III (ratio between 0.5 and 2 fold) | ≤ 10 nM | ≤ 10 nM | ≤ 10 nM | 10 to 25 nM | 10 to 25 nM | ≤ 100 nM | ≤ 250 nM | ≤ 250 nM | ≤ 10 nM
4 | O=C1NC(NC23CC4CC(CC2C4)C3)=N/C1=C\c1ccc2ncccc2c1 [Compound 48, (4Z)-2-(3-noradamantylamino)-4-(6-quinolylmethylene)-1H-imidazol-5-one] | 5 to 10 nM | 5 to 10 nM | II (ratio between 2 and 10 fold) | II (ratio between 2 and 10 fold) | ≤ 10 nM |  | ≤ 10 nM | 10 to 25 nM | 10 to 25 nM |  | ≤ 250 nM | ≤ 250 nM | 
